One assay addresses T1, Human Kv1.5 channels (Homo sapiens, UniProt P22460).
T1 construct: expressed in transfected cells; host or cells: Xenopus laevis oocytes injected with RNA synthesized in vitro
The experiment in a line: Activity on the Kv1.5 channel: two-microelectrode voltage clamp on Xenopus oocytes expressing Kv1.5. It counts as cell-based. The conditions noted are these: human Kv1.5 expressed in Xenopus oocytes, room temperature, Hill equation; read-out: Kv1.5 IC-50. The protocol: Determination of the Activity on the Kv1.5 Channel
Human Kv1.5 channels were expressed in xenopus oocytes. For this purpose, firstly oocytes were isolated from Xenopus laevis and defolliculated. Kv1.5-encoding RNA synthesized in vitro was then injected into these oocytes. After Kv1.5 protein expression for 1-7 days, Kv1.5 currents were measured on the oocytes using the two-microelectrode voltage clamp technique. The Kv1.5 channels were in this case usually activated with voltage jumps lasting 500 ms to 0 mV and 40 mV. A solution of the following composition flowed through the bath: NaCl 96 mM, KCl 2 mM, CaCl2 1.8 mM, MgCl2 1 mM, HEPES 5 mM (titrated to pH 7.4 with NaOH). These experiments were carried out at room temperature. The following were employed for data acquisition and analysis: Geneclamp amplifier (Axon Instruments, Foster City, USA) and MacLab D/A converter and software (ADInstruments, Castle Hill, Australia). The substances of the invention were tested by adding them in various concentrations to the bath solution. The effects of the substances were calculated as percent inhibition of the Kv1.5 control current which was obtained when no substance was added to the solution. The data were then extrapolated using the Hill equation in order to determine the inhibitory concentrations IC50 for the respective substances.

In the next assay the target is Human TASK-1 channels (UniProt O35111). The experiment in a line: Activity on the TASK-1 channel: two-microelectrode voltage clamp on Xenopus oocytes expressing TASK-1. It is filed as cell-based. The settings on record: TASK-1 expressed in Xenopus oocytes, room temperature, Hill equation; read-out: mTask-1 IC-50.

T1 sequence (P22460 whole entry): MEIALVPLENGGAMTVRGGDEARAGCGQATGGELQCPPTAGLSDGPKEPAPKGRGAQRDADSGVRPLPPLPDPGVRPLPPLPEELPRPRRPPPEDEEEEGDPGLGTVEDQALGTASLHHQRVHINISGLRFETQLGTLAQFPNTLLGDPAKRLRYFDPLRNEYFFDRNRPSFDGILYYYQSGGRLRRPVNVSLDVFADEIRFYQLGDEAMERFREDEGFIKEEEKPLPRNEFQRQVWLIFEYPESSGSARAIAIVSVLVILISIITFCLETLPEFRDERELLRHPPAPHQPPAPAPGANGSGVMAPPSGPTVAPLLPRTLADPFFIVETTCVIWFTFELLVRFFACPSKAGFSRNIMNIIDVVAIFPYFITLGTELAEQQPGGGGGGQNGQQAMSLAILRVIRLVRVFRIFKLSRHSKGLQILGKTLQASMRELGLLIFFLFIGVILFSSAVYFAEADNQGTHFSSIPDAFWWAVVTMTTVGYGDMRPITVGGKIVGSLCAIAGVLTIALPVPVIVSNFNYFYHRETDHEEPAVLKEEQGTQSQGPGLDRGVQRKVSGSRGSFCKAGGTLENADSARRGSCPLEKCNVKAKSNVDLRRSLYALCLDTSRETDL

Take `N#Cc1ccc(O[C@H](c2ccc(F)c(F)c2)[C@H](c2ccc(F)cc2)N2CCCC2=O)cc1` (racemic) [Example 4, 4-[(1R′,2S′)-1-(3,4-Difluorophenyl)-2-(4-fluorophenyl)-2-(2-oxopyrrolidin-1-yl)ethoxy]benzonitrile]: the IC50 on Human Kv1.5 channels was 3.9 µM; at Human TASK-1 channels it was 2.3 µM.

For `N#Cc1ccc(O[C@@H](c2cccc3cccnc23)[C@@H](c2ccc(F)cc2)N2CCCC2=O)cc1` (racemic) [Example 9, 4-[(1S′,2R′)-2-(4-Fluorophenyl)-2-(2-oxopyrrolidin-1-yl)-1-quinolin-8-ylethoxy]benzonitrile], the IC50 on Human Kv1.5 channels stood at 4.2 µM; at Human TASK-1 channels, 0.4 µM.

As to `CO[C@H](c1ccc(Cl)cc1)[C@H](c1ccccc1)N1CCCC1=O` (racemic) [Example 46], the IC50 at Human Kv1.5 channels is 1.5 µM; on Human TASK-1 channels, 5.4 µM.

With `N#Cc1ccc(OC(c2ccnc3ccccc23)C(c2ccc(F)cc2)N2CCCC2=O)cc1` (centres unmarked) [Example 105], at Human Kv1.5 channels, the IC50 turned out to be 4.6 µM.

For the molecule `O=C1CCCN1C(c1ccc(F)cc1)C(OCCCC(F)(F)F)c1cccc2cccnc12` (centres unmarked) [Example 111], the IC50 at Human Kv1.5 channels came to 8.8 µM.

`N#Cc1ccc(OC(c2ccc(C#N)cc2)C(c2ccc(F)cc2)N2CCCC2=O)cc1` (centres unmarked) [Example 113]: the IC50 at Human Kv1.5 channels was roughly 10 µM.

As to `C=CO[C@H](c1ccccc1)[C@H](c1ccccc1)N1CCCC1=O` [Example 120, 1 S,2R-1-(1,2-Diphenyl-2-vinyloxyethyl)pyrrolidin-2-one], the IC50 on Human Kv1.5 channels was 0.8 µM.

As to `C=CO[C@H](c1ccc(F)c(F)c1)[C@H](c1ccc(F)cc1)N1CCCC1=O` [Example 121], the IC50 at Human Kv1.5 channels worked out at 0.9 µM.

(Values after patent US7825264B2, “Substituted heterocycles, their use as medicament, and pharmaceutical preparations comprising them” (sanofi-aventis, priority 2005, dated 2010).)
